Experimental data from US9180077B2, “Green tea extracts of improved bioavailability” (Nestec S.A., priority 2009, dated 2015).

Assay: Stability study of green tea catechins: incubation in Na-Pi buffer pH 7.4 at 37° C., HPLC
Type: physicochemical
Experimental: Samples were prepared according to the following method. Briefly, each sample was treated with acetic acid (30% final concentration) for 30 min and then added to an aqueous solution containing 10% acetonitrile, 0.5 mg/mL EDTA and 0.5 mg/mL ascorbic acid. The mix was then centrifuged for 30 min at 14′000×g and the supernatant analysed by HPLC. Following this protocol allows the complete recovery of all catechins.
Green tea catechins were determined by reverse phase HPLC using an analytical method based on the ISO FDIS 14502-2 method. The HPLC system used was a 1100 series Hewlett-Packard (Geneva, Switzerland) model equipped with an ultraviolet-visible photodiode array and a fluorimetric detector. Catechins were detected by UV absorption at 280.4 nm except for catechins and epicatechin that were detected by fluorescence (excitation: 280 nm; emission: 310 nm). Samples (10 μl) were separated on a Zorbax RX—C18 column (4.6 mm internal diameter×250 mm length, Agilent technologies). Flow rate was 1.0 mL/min.
Sample concentration of green tea catechins (C, EC, EgC, EgCg, ECg) were calculated based on the corresponding calibration curve and reported as % of the initial value (sample at t0). Since caffeine, endogenous to green tea samples, is stable under the selected assay conditions, it was used as internal standard for all calculations. […]

In the case of O=C1O[C@H]([C@@H](O)CO)C(O)=C1O [vitamin C, ascorbic acid], the protection of catechins (0.2 mM, at least for 2 h of incubation, data not shown) is reported as “a certain protection” and the “vitamin C concentration at which the plateau of stabilisation is reached” value (stabilisation during 6 h, GTE 0.1%, pH 7.4, 37° C) is reported as 2.5 mM.
